Experimental data published in ChEMBL document CHEMBL1201862, “PubChem BioAssay data set” (2004).
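In this assay, cells in 96-well plates receive the compound at five concentrations for 48 hours. Endpoints are linearly interpolated between the surrounding concentrations. Abbreviation: GI50, concentration required for 50% inhibition of growth.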 The source made the active and inactive calls. Cut-off read from the data, not from the text of the source: active = GI50 up to about 1.1 µM and inactive = higher.

How the values were obtained:
Assay in all cases: DTP human tumour cell line panel, 48 h
COLO 205 = system: COLO 205
SNB-19 = system: SNB-19
HT-29 = system: HT-29
SK-MEL-28 = system: SK-MEL-28
DMS-273 = system: DMS-273
CCRF-CEM = system: CCRF-CEM
A549 = system: A549
SN12C = system: SN12C
HCT-116 = system: HCT-116
DLD-1 = system: DLD-1
SK-MEL-2 = system: SK-MEL-2
NCI-H522 = system: NCI-H522
SNB-78 = system: SNB-78
M19-MEL = system: M19-MEL
RPMI-8226 = system: RPMI-8226
MDA-N = system: MDA-N
MDA-MB-231 = system: MDA-MB-231
PC-3 = system: PC-3
Hs-578T = system: Hs-578T
MDA-MB-435 = system: MDA-MB-435

SMILES	GI50 (COLO 205)	GI50 (SNB-19)	GI50 (HT-29)	GI50 (SK-MEL-28)	GI50 (DMS-273)	GI50 (CCRF-CEM)	GI50 (A549)	GI50 (SN12C)	GI50 (HCT-116)	GI50 (DLD-1)	GI50 (SK-MEL-2)	GI50 (NCI-H522)	GI50 (SNB-78)	GI50 (M19-MEL)	GI50 (RPMI-8226)	GI50 (MDA-N)	GI50 (MDA-MB-231)	GI50 (PC-3)	GI50 (Hs-578T)	GI50 (MDA-MB-435)
O=c1ccn([C@@H]2C=C(CO)[C@@H](O)[C@H]2O)c(=O)[nH]1	> 625 µM (inactive)	> 625 µM (inactive)	> 625 µM (inactive)	> 625 µM (inactive)	> 625 µM (inactive)	> 625 µM (inactive)	> 625 µM (inactive)	> 625 µM (inactive)	> 625 µM (inactive)	> 625 µM (inactive)	> 625 µM (inactive)	> 625 µM (inactive)	–	–	–	–	–	–	–	–
COc1ccc(/C=c2\sc3n(c2=O)CCN=3)cc1	–	–	> 100 µM (inactive)	> 100 µM (inactive)	–	96.2 µM (inactive)	> 100 µM (inactive)	75.7 µM (inactive)	> 100 µM (inactive)	> 100 µM (inactive)	> 100 µM (inactive)	84.5 µM (inactive)	> 100 µM (inactive)	> 100 µM (inactive)	–	–	–	–	–	–
NCCCN(CCCN)CCN(CCN(CCCN)CCCN)CCN(CCCN)CCCN	> 100 µM (inactive)	> 100 µM (inactive)	> 100 µM (inactive)	> 100 µM (inactive)	–	> 10 µM (inactive)	> 100 µM (inactive)	> 100 µM (inactive)	> 100 µM (inactive)	–	> 100 µM (inactive)	17 µM (inactive)	–	–	> 100 µM (inactive)	> 100 µM (inactive)	> 100 µM (inactive)	> 100 µM (inactive)	23.5 µM (inactive)	> 100 µM (inactive)
c1ccc(-n2cnnc2-c2nsc3ccccc23)cc1	> 100 µM (inactive)	> 100 µM (inactive)	> 100 µM (inactive)	> 100 µM (inactive)	> 100 µM (inactive)	> 100 µM (inactive)	> 100 µM (inactive)	> 100 µM (inactive)	> 100 µM (inactive)	–	> 100 µM (inactive)	–	> 100 µM (inactive)	> 100 µM (inactive)	> 100 µM (inactive)	–	–	–	–	–
C[C@H]1O[C@@H](O[C@H]2[C@@H](O)C[C@H](O[C@H]3[C@@H](O)C[C@H](O[C@H]4CC[C@@]5(C)[C@H](CC[C@@H]6[C@@H]5CC[C@]5(C)[C@@H](C7=CC(=O)OC7)CC[C@]65O)C4)O[C@@H]3C)O[C@@H]2C)C[C@H](O)[C@@H]1O [DIGITOXIN]	0.0501 µM (active)	0.075 µM (active)	0.0338 µM (active)	0.092 µM (active)	–	< 0.0199 µM (active)	< 0.0157 µM (active)	< 0.01 µM (active)	0.0165 µM (active)	–	0.0641 µM (active)	< 0.01 µM (active)	–	–	0.0292 µM (active)	0.0256 µM (active)	0.129 µM (active)	< 0.033 µM (active)	< 0.0378 µM (active)	0.0485 µM (active)
